The results in this text go back to ChEMBL document CHEMBL4118157, “Efficiency of newly prepared thiazole derivatives against some cutaneous fungi” (2018).

In brackets after ≈: the same amount, converted by molar mass. Bounds are passed on as bounds.

Assay [1] has as its system Candida albicans. The assay is described as follows: Antifungal activity against Candida albicans after 48 hrs by broth microdilution method. The format is functional. In general terms: Broth dilution looks for growth in wells or tubes with falling amounts of substance.
In assay [2] the test system is Nannizzia gypsea. The experiment in a line: Antifungal activity against Microsporum gypseum after 72 hrs by broth microdilution method. Type of assay: functional.
Assay [3] relates to Trichophyton mentagrophytes. The experiment in a line: Antifungal activity against Trichophyton mentagrophytes after 72 hrs by broth microdilution method. Type of assay: functional.
Assay [4] concerns Candida albicans. The experiment in a line: Fungicidal activity against Candida albicans measured after 72 hrs. Type of assay: functional.
In assay [5] the test system is Nannizzia gypsea. The assay is described as follows: Fungicidal activity against Microsporum gypseum measured after 96 hrs. The format is functional.
Assay [6] concerns Trichophyton mentagrophytes. The assay is described as follows: Fungicidal activity against Trichophyton mentagrophytes measured after 96 hrs. The format is functional.
The test system of assay [7] is Candida albicans. The assay is described as follows: Inhibition of Candida albicans keratinase activity at 2 ppm incubated for 5 days under non-shaking condition and subsequent incubation for 5 days under shaking condition by UV-vis spectrophotometric analysis relative to control.
Assay [8] deals with Nannizzia gypsea. The assay is described as follows: Inhibition of Microsporum gypseum keratinase activity at 4 ppm incubated for 5 days under non-shaking condition and subsequent incubation for 5 days under shaking condition by UV-vis spectrophotometric analysis relative to control.
The subject of assay [9] is Trichophyton mentagrophytes. The experiment in a line: Inhibition of Trichophyton mentagrophytes keratinase activity at 4 ppm incubated for 5 days under non-shaking condition and subsequent incubation for 5 days under shaking condition by UV-vis spectrophotometric analysis relative to control.
For assay [10], the system named is Candida albicans. The assay is described as follows: Antifungal activity against Candida albicans infected in guinea pig skin assessed as recovery from infection at 10 mg/g administered once daily via superficial route for 15 days measured after 30 days post last dose relative to control. Type of assay: functional.
Assay [11] concerns Nannizzia gypsea. The assay is described as follows: Antifungal activity against Microsporum gypseum infected in guinea pig skin assessed as recovery from infection at 10 mg/g administered once daily via superficial route for 15 days measured after 30 days post last dose relative to control. The format is functional.
Assay [12] relates to Trichophyton mentagrophytes. The experiment in a line: Antifungal activity against Trichophyton mentagrophytes infected in guinea pig skin assessed as recovery from infection at 10 mg/g administered once daily via superficial route for 15 days measured after 30 days post last dose relative to control. Type of assay: functional.
Assay [13] has as its system Candida albicans. The assay is described as follows: Inhibition of Candida albicans keratinase activity at 8 ppm incubated for 5 days under non-shaking condition and subsequent incubation for 5 days under shaking condition by UV-vis spectrophotometric analysis relative to control.
The test system of assay [14] is Nannizzia gypsea. The assay is described as follows: Inhibition of Microsporum gypseum keratinase activity at 8 ppm incubated for 5 days under non-shaking condition and subsequent incubation for 5 days under shaking condition by UV-vis spectrophotometric analysis relative to control.
Assay [15] has as its system Trichophyton mentagrophytes. The experiment in a line: Inhibition of Trichophyton mentagrophytes keratinase activity at 16 ppm incubated for 5 days under non-shaking condition and subsequent incubation for 5 days under shaking condition by UV-vis spectrophotometric analysis relative to control.
In assay [16] the test system is Candida albicans. The experiment in a line: Inhibition of ergosterol biosynthesis in Candida albicans at MIC by spectrophotometric method relative to control. Type of assay: functional.
Assay [17] has as its system Nannizzia gypsea. The assay is described as follows: Inhibition of ergosterol biosynthesis in Microsporum gypseum at MIC by spectrophotometric method relative to control. Type of assay: functional.
For assay [18], the system named is Trichophyton mentagrophytes. The experiment in a line: Inhibition of ergosterol biosynthesis in Trichophyton mentagrophytes at MIC by spectrophotometric method relative to control. The format is functional.
Assay [19] has as its system Trichophyton terrestre. The experiment in a line: Inhibition of Trichophyton terrestre keratinase activity at 10 ug/ml incubated for 5 days under non-shaking condition and subsequent incubation for 5 days under shaking condition by UV-vis spectrophotometric analysis relative to control.
The test system of assay [20] is Nannizzia gypsea. The experiment in a line: Inhibition of Microsporum gypseum keratinase activity at 10 ug/ml incubated for 5 days under non-shaking condition and subsequent incubation for 5 days under shaking condition by UV-vis spectrophotometric analysis relative to control.
Assay [21] relates to Trichophyton rubrum. The experiment in a line: Inhibition of Trichophyton rubrum keratinase activity at 10 ug/ml incubated for 5 days under non-shaking condition and subsequent incubation for 5 days under shaking condition by UV-vis spectrophotometric analysis relative to control.
For assay [22], the system named is Epidermophyton floccosum. The assay is described as follows: Inhibition of Epidermophyton floccosum keratinase activity at 10 ug/ml incubated for 5 days under non-shaking condition and subsequent incubation for 5 days under shaking condition by UV-vis spectrophotometric analysis relative to control.
Assay [23] deals with Candida albicans. The assay is described as follows: Inhibition of Candida albicans keratinase activity at MIC incubated for 5 days under non-shaking condition and subsequent incubation for 5 days under shaking condition by UV-vis spectrophotometric analysis relative to control.
For assay [24], the system named is Nannizzia gypsea. The experiment in a line: Inhibition of Microsporum gypseum keratinase activity at MIC incubated for 5 days under non-shaking condition and subsequent incubation for 5 days under shaking condition by UV-vis spectrophotometric analysis relative to control.
Assay [25] relates to Trichophyton mentagrophytes. The experiment in a line: Inhibition of Trichophyton mentagrophytes keratinase activity at MIC incubated for 5 days under non-shaking condition and subsequent incubation for 5 days under shaking condition by UV-vis spectrophotometric analysis relative to control.
Assay [26] concerns Fungi. The assay is described as follows: Inhibition of fungal keratinase activity at 10 mg/ml relative to control.

In the case of `COc1ccc(/N=N/c2sc(NN=C3CCN(C)CC3)nc2-c2ccccc2)cc1`, the figures for the MIC in [1], in [2] and in assay [3] were 2 µg/mL (≈ 4.76 µM), 4 µg/mL (≈ 9.51 µM) and 4 µg/mL (≈ 9.51 µM), respectively. The results for the MFC in assay [4], in assay [5] and in assay [6] were 4 µg/mL (≈ 9.51 µM), 8 µg/mL (≈ 19 µM) and 32 µg/mL (≈ 76.1 µM), respectively. In addition, the inhibition in assay [7], in assay [8] and in [9] was 88.8 to 95% throughout. Moreover, the Activity is on record as 100% in assay [10], 92% in assay [11] and 85% in assay [12].

Take `CN1CCC(=NNC2=NC(=O)/C(=N\Nc3ccc(Cl)cc3)S2)CC1`: the MIC (commonly the lowest concentration found to suppress growth) in assay [1] was determined as 64 µg/mL (≈ 175 µM); in [2] it was 128 µg/mL (≈ 351 µM); in [3] it was 128 µg/mL (≈ 351 µM). The minimum fungicidal concentration (MFC) – broadly, the lowest tested concentration that kills the fungus rather than only halting it – was 128 µg/mL (≈ 351 µM) in assay [4], 256 µg/mL (≈ 702 µM) in assay [5] and above 256 µg/mL in [6].

As for `CN1CCC(=NNc2nc(-c3ccccc3)c(/N=N/c3ccc([N+](=O)[O-])cc3)s2)CC1`, the MIC was 8 µg/mL (≈ 18.4 µM) in assay [1], 8 µg/mL (≈ 18.4 µM) in assay [2] and 16 µg/mL (≈ 36.7 µM) in assay [3]. Moreover, the MFC in [4] was 16 µg/mL (≈ 36.7 µM); in [5] it was 32 µg/mL (≈ 73.5 µM); in [6], 32 µg/mL (≈ 73.5 µM). Moreover, the inhibition in assay [13], in [14] and in [15] was 66.1 to 92.2% throughout.

On to `COc1ccc(/N=N/c2sc(NN=C3CCN(C)CC3)nc2C)cc1`, for which the MIC in [1] stood at 64 µg/mL (≈ 179 µM); in assay [2] it was 128 µg/mL (≈ 357 µM); in assay [3], 128 µg/mL (≈ 357 µM). Also, the figures for the MFC in [4], in [5] and in [6] were 128 µg/mL (≈ 357 µM), 256 µg/mL (≈ 714 µM) and above 256 µg/mL, respectively.

On to `CN1CCC(=NNC2=NC(=O)/C(=N\Nc3ccccc3)S2)CC1`, for which the minimum inhibitory concentration (MIC) in [1] was 2 µg/mL (≈ 6.05 µM); in assay [2], 4 µg/mL (≈ 12.1 µM); in [3] it was 4 µg/mL (≈ 12.1 µM). The MFC was 4 µg/mL (≈ 12.1 µM) in assay [4], 8 µg/mL (≈ 24.2 µM) in [5] and 16 µg/mL (≈ 48.4 µM) in assay [6]. Also, the inhibition (as a rule, how much of the control response was suppressed) in assay [7] came out at 96%; in assay [8], 94%; in [9] it was 91.4%. Further, the figures for the “inhibition (INH)” value in assay [16], in assay [17] and in [18] were 73.3%, 86.4% and 74.3%, respectively. The Activity was found to be 100% in assay [10], 91% in assay [11] and 87% in assay [12].

As to `CN(C/C=C/C#CC(C)(C)C)Cc1cccc2ccccc12`, the inhibition was 66% in assay [19], 71.9% in assay [20], 51.7% in assay [21] and 72.3% in [22].

For the compound `CN1CCC(=NNC2=NC(=O)/C(=N\Nc3ccc([N+](=O)[O-])cc3)S2)CC1`, the results for the MIC in assay [1], in assay [2] and in assay [3] were 64 µg/mL (≈ 170 µM), 128 µg/mL (≈ 341 µM) and 128 µg/mL (≈ 341 µM), respectively. Moreover, the MFC is 256 µg/mL (≈ 682 µM) in assay [4], above 256 µg/mL in [5] and above 256 µg/mL in [6].

For the compound `Cc1nc(NN=C2CCN(C)CC2)sc1/N=N/c1ccccc1`, the MIC in [1] was determined as 16 µg/mL (≈ 48.7 µM); in [2], 64 µg/mL (≈ 195 µM); in assay [3], 64 µg/mL (≈ 195 µM). The results for the MFC in assay [4], in assay [5] and in assay [6] were 128 µg/mL (≈ 390 µM), 128 µg/mL (≈ 390 µM) and 245 µg/mL (≈ 746 µM), respectively. Moreover, the inhibition in assay [23], in assay [24] and in [25] was 33.4 to 46.3% throughout.

On to `Cc1ccccc1/N=N/c1sc(NN=C2CCN(C)CC2)nc1C`, for which the MIC in [1] came to 8 µg/mL (≈ 23.4 µM); in assay [2], 32 µg/mL (≈ 93.4 µM); in assay [3] it was 32 µg/mL (≈ 93.4 µM). Moreover, the MFC in assay [4] was 32 µg/mL (≈ 93.4 µM); in assay [5] it was 64 µg/mL (≈ 187 µM); in [6], 128 µg/mL (≈ 374 µM).

For the compound `Cc1nc(NN=C2CCN(C)CC2)sc1/N=N/c1cccc(Cl)c1`, the results for the MIC in assay [1], in assay [2] and in [3] were 32 µg/mL (≈ 88.2 µM), 64 µg/mL (≈ 176 µM) and 128 µg/mL (≈ 353 µM), respectively. The MFC in assay [4] was 128 µg/mL (≈ 353 µM); in assay [5] it was 256 µg/mL (≈ 705 µM); in assay [6] it was above 256 µg/mL.

In assay [26], `c1ccc(-c2ccc(C(c3ccccc3)n3ccnc3)cc2)cc1` (stereo not given) registered an inhibition of 50%.
